Results published in patent US20070128217A1 (priority 2003, published 2007).

Columns and labels:
[1] = tested on: control sera (pooled serum of ten healthy LUMC hospital workers; commercial negative donor pooled serum from the Dutch bloodbank); assay type: binding, human; parameters: Binding of Control serum LUMC to linear peptides / Binding of Control serum Blood-bank to linear peptides / Binding of Control serum LUMC to looped peptides / Binding of Control Serum Blood-Bank to Looped peptides / Binding of Control serum LUMC to linear peptides of the protein M of SARS-CoV Urbani / Binding of Control serum Blood-bank to linear peptides of the protein M of SARS-CoV Urbani / Binding of Control serum LUMC to looped peptides of the protein M of SARS-CoV Urbani / Binding of Control Serum Blood-Bank to Looped peptides of the protein M of SARS-CoV Urbani: unit not given here
[2] = tested on: antibodies in sera from SARS patients (sera 1a, 1b, 2, 6, 37, 62, London, SARS-yellow, SARS-green); assay type: binding, human; parameters: Binding of serum 6 to linear peptides of protein X1 of SARS-CoV Urbani / Binding of serum 37 to linear peptides of protein X1 of SARS-CoV Urbani / Binding of serum 6 to looped/cyclic peptide (PEPSCAN-ELISA) / Binding of serum 37 to looped/cyclic peptide (PEPSCAN-ELISA) / Binding of serum 37 to looped/cyclic peptides of protein X1 of SARS-CoV Urbani / Binding of serum 6 to linear peptides of protein X2 / Binding of serum 37 to linear peptides of protein X2 / Binding of serum 37 to looped/cyclic peptides of protein X2 of SARS-CoV Urbani / Binding of serum 6 to linear peptides of protein M of SARS-CoV Urbani / Binding of serum 37 to linear peptides of protein M of SARS-CoV Urbani / Binding of serum 6 to looped/cyclic peptides of protein M of SARS-CoV Urbani / Binding of serum 37 to looped/cyclic peptides of protein M of SARS-CoV Urbani / Binding of serum 6 to linear peptides of protein X3 of SARS-CoV Urbani / Binding of serum 37 to linear peptides of protein X3 of SARS-CoV Urbani / Binding of serum 37 to looped/cyclic peptides of protein X3 of SARS-CoV Urbani / Binding of serum 6 to linear peptides of protein X4 of SARS-CoV Urbani / Binding of serum 37 to linear peptides of protein X4 of SARS-CoV Urbani / Binding of serum 37 to looped/cyclic peptides of protein X4 of SARS-CoV Urbani / Binding of serum 6 to linear peptides of protein X5 of SARS-CoV Urbani / Binding of serum 37 to linear peptides of protein X5 of SARS-CoV Urbani / Binding of serum 37 to looped/cyclic peptides of protein X5 of SARS-CoV Urbani / Binding of serum 6 to linear peptides of protein N of SARS-CoV Urbani / Binding of serum 37 to linear peptides of protein N of SARS-CoV Urbani / Binding of serum 6 to linear peptide (PEPSCAN-ELISA) / Binding of serum 1a to looped/cyclic peptides of protein N of SARS-CoV Urbani / Binding of serum 1b to looped/cyclic peptides of protein N of SARS-CoV Urbani / Binding of serum 2 to looped/cyclic peptides of protein N of SARS-CoV Urbani / Binding of serum 6 to looped/cyclic peptides of protein N of SARS-CoV Urbani / Binding of serum 37 to looped/cyclic peptides of protein N of SARS-CoV Urbani / Binding of serum 62 to looped/cyclic peptides of protein N of SARS-CoV Urbani / Binding of serum London to looped/cyclic peptides of protein N of SARS-CoV Urbani / Binding of serum SARS-green to looped/cyclic peptides of protein N of SARS-CoV Urbani: unit not given here
[3] = tested on: recombinant human anti-SARS-CoV antibody 03-018; assay type: binding; parameters: Binding of antibody 03-018 to linear peptides of the N protein of SARS-CoV Urbani / Binding of antibody 03-018 to looped/cyclic peptides of the N protein of SARS-CoV Urbani: unit not given here
[4] = tested on: rabbit serum obtained by immunizing a rabbit with the SARS-CoV strain Frankfurt 1; assay type: binding; parameters: Binding of a rabbit serum to linear peptides / Binding of a rabbit serum to looped peptides / Rabbit serum linear peptides / Rabbit serum looped peptides / Binding of a rabbit serum to linear peptides of protein N of SARS-CoV Urbani (Rabbit serum linear peptides) / Binding of a rabbit serum to looped/cyclic peptides of protein N of SARS-CoV Urbani (Rabbit serum looped peptides): unit not given here

Sequence	Control Serum Blood-Bank Looped peptides [1]	Control serum Blood-bank linear peptides [1]	Control serum LUMC linear peptides [1]	Control serum LUMC looped peptides [1]	Binding of serum 1a to linear peptides of protein N of SARS-CoV Urbani [2]	Binding of serum 1a to looped/cyclic peptides of protein N of SARS-CoV Urbani [2]	Binding of serum 1b to linear peptides of protein N of SARS-CoV Urbani [2]	Binding of serum 1b to looped/cyclic peptides of protein N of SARS-CoV Urbani [2]	Binding of serum 2 to linear peptides of protein N of SARS-CoV Urbani [2]	Binding of serum 2 to looped/cyclic peptides of protein N of SARS-CoV Urbani [2]	Binding of serum 6 to looped/cyclic peptides of protein N of SARS-CoV Urbani [2]	Binding of serum 37 to looped/cyclic peptides of protein N of SARS-CoV Urbani [2]	Binding of serum 62 to looped/cyclic peptides of protein N of SARS-CoV Urbani [2]	Binding of serum London to looped/cyclic peptides of protein N of SARS-CoV Urbani [2]	Binding of serum SARS-green to looped/cyclic peptides of protein N of SARS-CoV Urbani [2]	Binding of serum SARS-yellow to looped/cyclic peptides of protein N of SARS-CoV Urbani [2]	Binding of antibody 03-018 to linear peptides of the N protein of SARS-CoV Urbani [3]	Binding of antibody 03-018 to looped/cyclic peptides of the N protein of SARS-CoV Urbani [3]	Binding of a rabbit serum to linear peptides of protein N of SARS-CoV Urbani (Rabbit serum linear peptides) [4]	Binding of a rabbit serum to looped/cyclic peptides of protein N of SARS-CoV Urbani (Rabbit serum looped peptides) [4]	further results
GTWLTYHGAIKLDDK	0.4	0.6	0.6	0.4	0.2	0.2	0.1	0.1	0.2	0.2	0.1	0.4	0.3	0.3	0.1	0.5	0.1	0.2	0.1	0.2	Binding of serum 6 to linear peptides of protein N of SARS-CoV Urbani [2]: 0.1; Binding of serum 37 to linear peptides of protein N of SARS-CoV Urbani [2]: 0.7; Binding of serum 62 to linear peptides of protein N of SARS-CoV Urbani [2]: 0.7; Binding of serum London to linear peptides of protein N of SARS-CoV Urbani [2]: 0.5; Binding of serum SARS-green to linear peptides of protein N of SARS-CoV Urbani [2]: 0.4; Binding of serum SARS-yellow to linear peptides of protein N of SARS-CoV Urbani [2]: 0.7
LPAADMDDFSRQLQN	0.4	0.7	0.7	0.4	0.2	0.3	0.2	0.2	0.4	0.5	0.4	0.6	0.4	0.3	0.5	0.6	0.1	0.2	0.2	0.2	Binding of serum 6 to linear peptides of protein N of SARS-CoV Urbani [2]: 0.3; Binding of serum 37 to linear peptides of protein N of SARS-CoV Urbani [2]: 0.7; Binding of serum 62 to linear peptides of protein N of SARS-CoV Urbani [2]: 0.6; Binding of serum London to linear peptides of protein N of SARS-CoV Urbani [2]: 0.5; Binding of serum SARS-green to linear peptides of protein N of SARS-CoV Urbani [2]: 0.2; Binding of serum SARS-yellow to linear peptides of protein N of SARS-CoV Urbani [2]: 0.6
KSAAEASKKPRQKRT	–	–	–	–	–	0.2	–	0.1	–	0.2	0.1	0.4	0.2	0.3	0.1	0.1	0.1	0.1	0.1	0.2	Binding of Control Serum Blood-Bank to Looped peptides [1]: 0.4; Binding of Control serum Blood-bank to linear peptides [1]: 0.7; Binding of Control serum LUMC to linear peptides [1]: 0.7; Binding of Control serum LUMC to looped peptides [1]: 0.4; Recognition of the peptide by sera of SARS-CoV infected individuals, and form (linear, looped/cyclic) in which it is recognized [2]: recognized in linear form
